Laboratory results taken from patent US6448260B2, “Endothelin receptor antagonists” (SmithKline Beecham Corporation, priority 1991, dated 2002).

Compound: CCCCc1ccc2c(c1)[C@H](c1ccc(OC)cc1OCC(=O)O)[C@@H](C(=O)O)[C@@H]2c1ccc2c(c1)OCO2 (racemic) [Example 89, (1RS, 2SR, 3RS)-5-Butyl-3-(2-carboxymethoxy-4-methoxyphenyl)-1-(3,4-methylenedioxyphenyl) indane-2-carboxylic acid]
- melting point: 176 to 177 °C

Compound: CCCOc1cccc2c1[C@@H](c1ccc3c(c1)OCO3)[C@@H](C(=O)O)[C@H]2c1ccc(OC)cc1OCC(=O)O (racemic) [Example 91, (1RS, 2RS, 3RS)-1-(2-Carboxymethoxy-4-methoxyphenyl]-3-(3,4-methylenedioxyphenyl)-4-(prop-1-yloxy)indane-2-carboxylic acid]
- melting point: 201 to 206 °C

Compound: COc1ccc([C@@H]2c3cc(OC)ccc3[C@H](c3ccc4c(c3OC)OCO4)[C@H]2C(=O)O)cc1 (racemic) [Example 93, (1RS, 2SR, 3RS)-5-Methoxy-1-(2-methoxy-3,4-methylenedioxyphenyl)-3-(4-methoxyphenyl)indane-2-carboxylic acid]
- melting point: 148 to 149 °C

Compound: CCCOc1ccc2c(c1)[C@H](c1ccc(OC(C)C)cc1OCC(=O)O)[C@H](C(=O)O)[C@@H]2c1ccc2c(c1)OCO2 (racemic) [Example 95, (1RS, 2RS, 3RS)-3-(2-Carboxymethoxy-4-isopropyloxyphenyl)-1-(3,4-methylenedioxyphenyl)-5-(prop-1-yloxy)indane-2-carboxylic acid]
- melting point: 183 to 185 °C

Compound: CCCOc1ccc2c(c1)[C@H](c1ccc(OCC)cc1OCC(=O)O)[C@@H](C(=O)O)[C@@H]2c1ccc2c(c1)OCO2 (racemic) [Example 96, (1RS, 2SR, 3RS)-3-(2-Carboxymethoxy-4-ethyloxyphenyl)-1-(3,4-methylenedioxyphenyl)-5-(prop-1-yloxy)indane-2-carboxylic acid]
- melting point: 194 to 196 °C

Compound: CCCOc1ccc2c(c1)[C@H](c1ccc(OC)cc1Oc1ncccc1C(=O)O)[C@@H](C(=O)O)[C@@H]2c1ccc2c(c1)OCO2 (racemic) [Example 98, (1RS, 2SR, 3RS)-3-[2-[(3-Carboxypyridin-2-yl)oxy]-4-methoxyphenyl]-1-(3,4-methylenedioxyphenyl)-5-(prop-1-yloxy) indane-2-carboxylic acid]
- melting point: 152 to 155 °C

Compound: C=CCOc1cc(OC)ccc1[C@H]1c2cc(OCCC)ccc2[C@@H](c2ccc3c(c2)OCO3)[C@@H]1C(=O)O (racemic) [Example 100, (1RS, 2SR, 3RS)-1-(3,4-Methylenedioxyphenyl)-3-[4methoxy-2-(2-propen-1-yloxy)phenyl]-5-(prop-1-yloxy)indane-2-carboxylic acid]
- melting point: 168 to 170 °C

Compound: C=CCCOc1ccc2c(c1)[C@@H](c1ccc(OC)cc1)[C@H](C(=O)O)[C@@H]2c1ccc2c(c1)OCO2 (racemic) [Example 106, (1RS, 2SR, 3RS)-5-(3-Buten-1-yloxy)-3-(4-methoxyphenyl)-1-(3,4-methylenedioxyphenyl)indane-2-carboxylic acid]
- melting point: 127 to 129 °C

Compound: CCCCOc1ccc2c(c1)[C@H](C1(OC)C=CC=CC1)[C@@H](C(=O)O)[C@@H]2c1ccc2c(c1)OCO2 (mixture of isomers) [Example 107, (1RS, 2SR, 3RS)-5-(But-1-yloxy)-3-(1-methoxyphenyl)-1-(3,4-methylenedioxyphenyl)indane-2-carboxylic acid]
- melting point: 157 to 158 °C

Compound: O=C(O)[C@H]1[C@H](c2ccc3c(c2)OCO3)c2ccc(O)cc2[C@@H]1c1ccc(OC(F)(F)F)cc1 (racemic) [Example 108, (1RS, 2RS, 3SR)-5-Hydroxy-1-(3,4-methylenedioxyphenyl)-3-(4-trifluoromethoxyphenyl)indane-2-carboxylic acid]
- melting point: 100 to 104 °C

Compound: COc1ccc([C@@H]2c3cc(O)ccc3[C@H](c3c[nH]c4ccccc34)[C@H]2C(=O)O)cc1 (racemic) [Example 109, (1RS, 2SR, 3RS)-5-Hydroxy-1-(3-indolyl)-3-(4-methoxyphenyl)indane-2-carboxylic acid]
- melting point: 138 to 140 °C

Compound: O=C(O)[C@H]1[C@H](c2ccc3c(c2)OCO3)c2ccc(OCc3ccccc3)cc2[C@@H]1c1ccc2c(c1)OCO2 (racemic) [Example 116, (1RS, 2SR, 3SR)-5-Benzyloxy-1,3-bis(3,4-methylenedioxyphenyl)indane-2 carboxylic acid]
- melting point: 191 to 193 °C

Compound: CCCOc1ccc2c(c1)[C@H](c1ccc(OC)cc1OCC(=O)O)[C@@H](CNS(=O)(=O)C(F)(F)F)[C@@H]2c1ccc2c(c1)OCO2 (racemic) [Example 140, (1RS, 2SR, 3RS)-2-Trifluoromethylsulfonamidomethyl-3-(2-carboxymethoxy-4-methoxyphenyl)-1-(3,4-methylenedioxyphenyl)-5-(prop-1-yloxy)indane]
- melting point: 184 to 186 °C
